Patent US20100068204A1, “4-ARYLOXYQUINOLIN-2(1H)-ONES AS MTOR KINASE AND PI3 KINASE INHIBITORS, FOR USE AS ANTI-CANCER AGENTS” (Wyeth, priority 2008, published 2010)

Legend:
human TOR (FLAG-TOR) = human TOR (FLAG-TOR) (Homo sapiens, UniProt P42345); assay: mTOR enzyme assay (DELFIA format, purified enzyme); type: biochemical; settings: 800 ng/ml FLAG-TOR, 100 μM ATP, 1.25 μM His6-S6K; read-out: mTOR Kinase IC50
PI3Kα = PI3Kα (Homo sapiens, UniProt P42336); assay: PI3Kα fluorescence polarization assay; type: biochemical; settings: 20 μM PIP2, 25 μM ATP
Chain of PI3Kα (P42336 whole entry, species assumed): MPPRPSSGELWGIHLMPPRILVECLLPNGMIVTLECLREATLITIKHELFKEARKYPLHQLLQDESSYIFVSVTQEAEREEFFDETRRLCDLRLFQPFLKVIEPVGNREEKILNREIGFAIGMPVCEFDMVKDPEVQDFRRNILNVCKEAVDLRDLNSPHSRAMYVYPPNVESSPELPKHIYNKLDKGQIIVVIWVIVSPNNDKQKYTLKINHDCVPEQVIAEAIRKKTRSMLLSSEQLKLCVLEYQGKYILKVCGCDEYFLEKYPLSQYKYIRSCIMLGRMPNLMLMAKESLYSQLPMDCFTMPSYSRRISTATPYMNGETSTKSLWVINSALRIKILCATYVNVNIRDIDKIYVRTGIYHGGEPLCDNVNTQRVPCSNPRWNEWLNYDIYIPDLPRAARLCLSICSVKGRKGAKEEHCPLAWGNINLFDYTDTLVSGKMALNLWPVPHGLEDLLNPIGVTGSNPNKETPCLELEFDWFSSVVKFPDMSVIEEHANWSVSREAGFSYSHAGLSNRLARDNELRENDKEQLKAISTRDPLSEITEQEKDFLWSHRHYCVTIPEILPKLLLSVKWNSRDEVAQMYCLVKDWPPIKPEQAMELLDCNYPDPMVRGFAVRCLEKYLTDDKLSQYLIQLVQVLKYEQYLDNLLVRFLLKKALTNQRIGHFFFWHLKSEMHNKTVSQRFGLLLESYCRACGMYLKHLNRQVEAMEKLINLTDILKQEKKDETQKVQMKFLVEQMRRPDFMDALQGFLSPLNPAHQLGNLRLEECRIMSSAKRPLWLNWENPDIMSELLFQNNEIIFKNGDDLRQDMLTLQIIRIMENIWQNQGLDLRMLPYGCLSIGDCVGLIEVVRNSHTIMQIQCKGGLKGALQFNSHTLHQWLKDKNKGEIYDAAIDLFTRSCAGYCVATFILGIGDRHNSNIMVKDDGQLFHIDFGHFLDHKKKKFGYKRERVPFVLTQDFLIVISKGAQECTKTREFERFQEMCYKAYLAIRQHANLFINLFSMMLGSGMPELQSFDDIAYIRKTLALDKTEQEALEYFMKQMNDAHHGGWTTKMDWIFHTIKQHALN
Chain of PI3Kα (P27986 whole entry partner, species assumed): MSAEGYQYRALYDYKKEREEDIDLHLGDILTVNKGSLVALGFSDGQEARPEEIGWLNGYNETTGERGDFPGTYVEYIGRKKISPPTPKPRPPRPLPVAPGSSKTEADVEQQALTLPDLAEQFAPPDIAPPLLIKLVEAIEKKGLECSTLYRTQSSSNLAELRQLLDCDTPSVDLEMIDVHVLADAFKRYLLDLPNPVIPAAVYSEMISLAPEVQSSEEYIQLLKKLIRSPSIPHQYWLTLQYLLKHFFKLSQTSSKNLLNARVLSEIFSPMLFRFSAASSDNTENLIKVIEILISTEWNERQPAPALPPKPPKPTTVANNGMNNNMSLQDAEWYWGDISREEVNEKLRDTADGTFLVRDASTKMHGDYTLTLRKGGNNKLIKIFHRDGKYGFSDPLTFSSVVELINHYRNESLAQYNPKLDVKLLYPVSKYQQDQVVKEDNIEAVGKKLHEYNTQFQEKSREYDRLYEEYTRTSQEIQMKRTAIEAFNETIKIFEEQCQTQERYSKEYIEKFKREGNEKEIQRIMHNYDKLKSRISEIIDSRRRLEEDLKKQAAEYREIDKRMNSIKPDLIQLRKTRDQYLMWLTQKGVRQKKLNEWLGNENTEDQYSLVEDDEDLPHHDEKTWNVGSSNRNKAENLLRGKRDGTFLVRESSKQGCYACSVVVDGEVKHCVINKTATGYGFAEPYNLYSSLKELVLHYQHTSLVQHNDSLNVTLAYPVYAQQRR
Method: The reaction buffer was 20 mM HEPES pH7.5, 2 mM MgCl2, 0.05% CHAPS, and 0.01% βME (added fresh). The substrate solution was 40 μM PIP2 (diC8, Echelon, Salt Lake City Utah cat #P-4508, 1 mM in water) and 50 μM ATP in the reaction buffer. Nunc 384-well black polypropylene fluorescent plates were used for PI3K assays. The assay is run by putting 9.5 μl of freshly diluted enzyme in the reaction buffer per well, adding 0.5 μl of diluted drug or DMSO, and mixing. Then 10 μl of the substrate solution is added to each well to start the reaction. A final concentration of 20 μM PIP2 and 25 μM ATP in the reaction was used. Reactions were allowed to proceed for 30-60 minutes at room temperature. After 30-60 minutes, 20 μl of a solution of 10 nM TAMRA detector (Red detector probe-Echelon) and 2.5 uM of GST-murine GRP (1.5 mg/ml in 17% glycerol) was added per well to stop the reaction. The resulting solution was mixed well and allowed to stand for 90-110 minutes before reading plate. Assay Plates were read on Perkin-Elmer Envision plate readers with appropriate filters for Tamra [BODIPY-TMRI(1,3,4,5)P4]. Data obtained were used to calculate enzymatic activity and enzyme inhibition by inhibitor compounds. It is important to keep Red probe solutions dark. This procedure is adapted from Echelon Biosciences Inc procedure for their PI3-Kinase fluorescence polarization activity Assay kit Product number K-1100.

[1] = system: LNCap prostate tumor cells; assay: In vitro cell growth assay (MTS), LNCap; type: cell-based, human; settings: three days after drug treatment
Method: (§1) Cell lines used were human adenocarcinoma (LoVo), […], prostate (LNCap), breast (MDA468, MCF7), colon (HCT116), renal (HTB44 A498), and ovarian (OVCAR3) tumor cell lines. The tumor cells were plated in 96-well culture plates at approximately 3000 cells per well. One day following plating, various concentrations of inhibitors in DMSO were added to cells (final DMSO concentration in cell assays was 0.25%). Three days after drug treatment, viable cell densities were determined by cell mediated metabolic conversion of the dye MTS, a well-established indicator of cell proliferation in vitro. Cell growth assays were performed using kits purchased from Promega Corporation (Madison, Wis.), following the protocol provided by the vendor. Measuring absorbance at 490 nm generated MTS assay results. Compound effect on cell proliferation was assessed relative to untreated control cell growth.

[2] = system: MDA468 breast tumor cells; assay: In vitro cell growth assay (MTS), MDA468; type: cell-based, human; settings: three days after drug treatment
Method: as §1

Row | Compound | IC50 (human TOR (FLAG-TOR)) | IC50 (PI3Kα) | IC50 ([1]; Homo sapiens, LNCaP, 72 h) | IC50 ([2]; Homo sapiens, 72 h) | IC50 [2] | IC50 [1]
1 | CC(=O)N1CCC(C(=O)Nc2ccc3[nH]c(=O)cc(Oc4ccccc4)c3c2)CC1 | > 20 µM | > 10 µM | > 60 µM | > 60 µM |  | 
2 | COc1cnc(OC)c(CNc2cccc(Oc3cc(=O)[nH]c4ccccc34)c2)c1 | 0.51 µM | 1.93 µM | 9 µM | 15 µM |  | 
3 | O=c1cc(Oc2cccc(NCc3cccnc3Cl)c2)c2ccccc2[nH]1 [drawing 207] | 0.13 µM | 11 µM | 5.3 µM |  | > 60 µM | 
4 | Nc1ccc(CNc2cccc(Oc3cc(=O)[nH]c4ccccc34)c2)cn1 | 0.11 µM | 7.16 µM | 4 µM | 8 µM |  | 
5 | Nc1cccc(Oc2cc(=O)[nH]c3ccccc23)c1 | 0.15 µM | 0.106 µM | 2.5 µM | 28 µM |  | 
6 | O=c1cc(Oc2cccc(N3CCOCC3)c2)c2ccccc2[nH]1 | 0.43 µM | > 10 µM | 9 µM | 60 µM |  | 
7 | O=c1cc(Oc2cccc(NCc3ccc(-c4cccnc4)cc3)c2)c2ccccc2[nH]1 | 0.09 µM | 7.98 µM | 3.3 µM | 8 µM |  | 
8 | O=c1cc(Oc2cccc(NCc3ccc(Oc4ccc(F)cc4)cc3)c2)c2ccccc2[nH]1 | 3.5 µM | > 10 µM | 5.3 µM | 12 µM |  | 
9 | Cn1cc(-c2ccc3[nH]c(=O)cc(Oc4ccccc4)c3c2)cn1 | > 20 µM | > 10 µM | > 60 µM | > 60 µM |  | 
10 | O=c1cc(Oc2cccc(OCCO)c2)c2ccccc2[nH]1 | 0.34 µM | 12 µM | 6 µM | > 60 µM |  | 
11 | O=c1cc(Oc2cccc(NCc3ccco3)c2)c2ccccc2[nH]1 | 0.13 µM | 4.65 µM | 3.4 µM | 13 µM |  | 
12 | CCOc1ccc(Oc2cc(=O)[nH]c3ccccc23)cc1 | > 20 µM | > 10 µM | > 60 µM | > 60 µM |  | 
13 | O=c1cc(Oc2ccccc2)c2cc(N3CCOCC3)ccc2[nH]1 | 16.5 µM | 1.17 µM | 7.5 µM | 27 µM |  | 
14 | Nc1ccc(-c2ccc(Oc3cc(=O)[nH]c4ccccc34)cc2)cc1 | > 20 µM | 0.778 µM | 2 µM | 60 µM |  | 
15 | O=c1cc(Oc2cccc(NC3CCN(Cc4ccccn4)CC3)c2)c2ccccc2[nH]1 | 0.19 µM | > 10 µM | 6.5 µM | 19 µM |  | 
16 | O=c1cc(Oc2cccc(NC3CCN(Cc4ccncc4)CC3)c2)c2ccccc2[nH]1 | 0.15 µM | > 10 µM | 6.4 µM | 31 µM |  | 
17 | CC(C)(C)OC(=O)NC1(CNc2cccc(Oc3cc(=O)[nH]c4ccccc34)c2)CCCC1 | 0.23 µM | 5.13 µM | 4.1 µM | 8.5 µM |  | 
18 | CC(=O)Nc1ccc(-c2cccc(Oc3cc(=O)[nH]c4ccccc34)c2)cc1 | 0.22 µM | 3.67 µM | 15 µM | 11 µM |  | 
19 | O=c1cc(Oc2ccccc2Br)c2ccccc2[nH]1 | 0.95 µM | 8 µM | 7 µM | 40 µM |  | 
20 | O=c1cc(Oc2cccc(C(F)(F)F)c2)c2ccccc2[nH]1 | 1.35 µM | 8.69 µM | > 60 µM | > 60 µM |  | 
21 | O=c1cc(Oc2ccc(-c3ccncc3)cc2)c2ccccc2[nH]1 | 0.24 µM | 4.88 µM | 1.9 µM | > 60 µM |  | 
22 | CCN(CC)CCOc1cccc(Oc2cc(=O)[nH]c3ccccc23)c1 | 0.32 µM | > 10 µM | 7 µM | 28 µM |  | 
23 | Nc1cccc(-c2cccc(Oc3cc(=O)[nH]c4ccccc34)c2)c1 | 0.17 µM | 5.59 µM | 8 µM | 30 µM |  | 
24 | O=c1cc(Oc2ccc(C3N=CCN3)cc2)c2ccccc2[nH]1 (stereo not shown) | 0.78 µM | > 10 µM | 45 µM | 60 µM |  | 
25 | Cc1ccc(Oc2cc(=O)[nH]c3ccccc23)cc1C | 0.69 µM | > 10 µM | > 60 µM | > 60 µM |  | 

Row | Compound | IC50 (human TOR (FLAG-TOR)) | IC50 (PI3Kα) | IC50 ([1]; Homo sapiens, LNCaP, 72 h) | IC50 ([2]; Homo sapiens, 72 h) | IC50 [2] | IC50 [1]
26 | O=c1cc(Oc2cccc(F)c2)c2ccccc2[nH]1 | 1.12 µM | > 10 µM | > 60 µM | > 60 µM |  | 
27 | Nc1nc(Cl)c(CNc2cccc(Oc3cc(=O)[nH]c4ccccc34)c2)c(Cl)n1 | 0.17 µM | > 10 µM | 5.2 µM | 3.5 µM |  | 
28 | O=c1cc(Oc2cccc(-c3ccccc3)c2)c2ccccc2[nH]1 | 0.63 µM | > 10 µM | 17 µM | 60 µM |  | 
29 | CN(C)CCNC(=O)c1cccc(-c2cccc(Oc3cc(=O)[nH]c4ccccc34)c2)c1 | 0.32 µM | > 10 µM | 10 µM | 10 µM |  | 
30 | CNc1ncccc1CNc1cccc(Oc2cc(=O)[nH]c3ccccc23)c1 | 0.09 µM | > 10 µM | 2.8 µM | 6.8 µM |  | 
31 | CN(C)CCc1ccc(Oc2cc(=O)[nH]c3ccccc23)cc1 | 3.23 µM | > 10 µM | 8 µM | 23 µM |  | 
32 | CN(C)CCNC(=O)c1ccc(-c2cccc(Oc3cc(=O)[nH]c4ccccc34)c2)cc1 | 0.24 µM | > 10 µM | 6 µM | 12 µM |  | 
33 | O=c1cc(Oc2ccccc2C(F)(F)F)c2ccccc2[nH]1 | 1.65 µM | 0.308 µM | > 60 µM | > 60 µM |  | 
34 | O=c1cc(Oc2ccc(I)cc2)c2ccccc2[nH]1 | 0.74 µM | > 10 µM | > 60 µM | 18 µM |  | 
35 | O=c1cc(Oc2ccccc2)c2cc(-c3ccoc3)ccc2[nH]1 | 7.3 µM | 6.96 µM | > 60 µM | 4.5 µM |  | 
36 | O=c1cc(Oc2cccc(-c3ccc(NCCCl)cc3)c2)c2ccccc2[nH]1 | 0.44 µM | > 10 µM | 6.2 µM | 11 µM |  | 
37 | O=c1cc(Oc2cccc(-c3cc[nH]n3)c2)c2ccccc2[nH]1 | 0.15 µM | 6.67 µM | 30 µM | 60 µM |  | 
38 | O=C(NCCO)c1ccc(-c2cccc(Oc3cc(=O)[nH]c4ccccc34)c2)cc1 | 0.23 µM | > 10 µM | > 60 µM | > 60 µM |  | 
39 | Cn1cc(-c2cccc(Oc3cc(=O)[nH]c4ccccc34)c2)cn1 | 0.18 µM | > 10 µM | > 60 µM | 60 µM |  | 
40 | CN(C)C/C=C/C(=O)Nc1cccc(-c2cccc(Oc3cc(=O)[nH]c4ccccc34)c2)c1 | 0.14 µM | 12 µM | 4 µM | 8 µM |  | 
41 | O=c1cc(Oc2cccc(NCCc3cccnc3)c2)c2ccccc2[nH]1 | 0.12 µM | > 10 µM | 4 µM | 11.5 µM |  | 
42 | Cc1cccc(Oc2cc(=O)[nH]c3ccccc23)c1 [drawing 249] | 0.24 µM | 0.736 µM |  |  | 20 µM | 7.5 µM
43 | O=c1cc(Oc2ccc(-c3cccc(O)c3)cc2)c2ccccc2[nH]1 | 0.71 µM | 1.66 µM | > 60 µM | > 60 µM |  | 
44 | Cn1cc(CN(Cc2ccn(C)n2)c2cccc(Oc3cc(=O)[nH]c4ccccc34)c2)cn1 | 0.23 µM | 4.62 µM | 3 µM | 3 µM |  | 
45 | COCCNC(=O)Nc1ccc(-c2cccc(Oc3cc(=O)[nH]c4ccccc34)c2)cc1 | 0.26 µM | > 10 µM | > 60 µM | 60 µM |  | 
46 | O=c1cc(Oc2ccc(-c3cn[nH]c3)cc2)c2ccccc2[nH]1 | > 20 µM | 2.17 µM | 60 µM | 60 µM |  | 
47 | Nc1ccc(-c2ccc3[nH]c(=O)cc(Oc4ccccc4)c3c2)cc1 | > 20 µM | 6.54 µM | 18 µM | 60 µM |  | 
48 | Cc1cccc(Oc2cc(=O)[nH]c3ccccc23)c1 [drawing 313] | 0.5 µM | > 10 µM |  | 40 µM |  | 60 µM
49 | O=c1cc(Oc2cccc(NCc3cncc(F)c3)c2)c2ccccc2[nH]1 | 0.05 µM | 8.99 µM | 1.9 µM | 7.2 µM |  | 
